The source of these data is article PMC12518693, “Potent Fluorescent Probe for Target‐Engagement Studies of Allosteric Pyruvate Kinase Modulators” (Angewandte Chemie (International Ed. in English), 2025).

Molecules are shown by their SMILES. Marks after values point to notes of the source that are not given here.

Series [1] deals with T1, PKM2 (Homo sapiens, UniProt P14618). The experiment in a line: Surface plasmon resonance, PKM2. Particulars: for K D (SPR, PKM2): 20 °C.
The target of series [2] is T2, PKL (Homo sapiens, UniProt P30613). The experiment in a line: HepG2 PKM2 KO cell lysate PKL activity assay. Conditions: HepG2 PKM2 KO cells, 48 h, mean ± SE n=3.
Description: These predominantly express PKL.
HepG2 PKM2 KO cells (Synthego) were plated in 6 well plates at cell densities of 2 x 10^5 cells/well and incubated for 24 h at 37 °C and 5% CO2. Compounds were added to the cells in different concentrations (0.1, 1, 10 µM) and the cells were further incubated for 48 h. The control cells received DMSO as vehicle.
Cells were washed with PBS, lysed on ice with 200 µL/well PK assay buffer. […] Pyruvate kinase (PK) activity of the cell lysates (10 µg total protein) was analyzed by using the PK assay kit from abcam (ab83432) according to manufacturer´s instructions. The PKL activity in the cell lysates treated with the compounds was expressed as a percentage of the PK activity in the vehicle.
Series [3] concerns the target T2, PKL. Briefly: Recombinant PKL activity assay (Kinase-Glo MAX). The series is classed as biochemical. Set-up: co-crystallisation of full-length PKL (including the B-domain); 8xHis (TEV-cleavable) (N, cleaved yes); made in house; host or cells: E. coli T7 Express (NEB), pExp-NHis plasmid. Conditions: for EC50: recombinant PKL 10 nM, 15 min pre-incubation, PEP 0.1 mM, ADP 0.2 mM; for PKL E max: recombinant PKL, above 100% activation, below 100% inhibition. The procedure:
The two isozymes were incubated with increasing concentrations of compounds before the addition of substrates PEP and adenosine diphosphate (ADP), and the reactions were monitored using a Kinase‐Glo MAX assay.
Figure S2. […] The reactions were terminated by the addition of Kinase Glo-MAX reagent after 10 min, and the luminescence from each reaction was quantified using a plate reader. The activity values are expressed as a percentage of PK activity of the DMSO control. The potencies were calculated by best fit of the Hill equation to the luminescence data.^[2] (A) PKL titrations. (B) PKM2 titrations. Error bars represent the ±SE of replicates (n = 3).
The reaction mixture contained 0.2 mM ADP, 0.1 mM PEP, 5 nM PKL, 1% DMSO, and test compounds at concentrations ranging from 0 to 1 mM across 12 titration points. Prior to substrate addition, PKL and test compounds were pre-incubated for 15 minutes.
After the reaction, 5 µL of Kinase-Glo Max reagent was added to each well. […] For each data set, luminescence from the DMSO control was set as 100% activity, and luminescence from the protein blank (no PKL) as 0% activity. Percentage activity (E%) was calculated using the equation: […]
Titration data was fitted to the Hill equation in Origin to determine EC₅₀ values.

Series [4] addresses T2, PKL. The experiment in a line: Surface plasmon resonance, PKL. Conditions: for koff: read-out: k off SPR (PKL); for kon: read-out: k on SPR (PKL).
Description: The surface was washed with 10 mM NaOH, 1M NaCl followed by immobilization of protein before subsequent deactivation by 1 M ethanolamine. Immobilization levels were typically 12000-16000 RU. The reference spot was treated as described, omitting the injection of PKL. Compound concentration series was injected over the immobilized protein in increasing concentrations using multi cycle (MCK) or single cycle kinetics (SCK) in running buffer (10 mM HEPES, 150 mM NaCl, 0.05% Tween20, 0.3% DMSO, pH 7.4). A 1:1 Langmuir interaction model is fitted to the experimental traces, enabling determination of kon, koff and Kd.
Series [5] addresses T1, PKM2. Briefly: Recombinant PKM2 activity assay (Kinase-Glo MAX). Conditions: for PKM2 E max: recombinant PKM2; for EC50: recombinant PKM2 10 nM, 15 min pre-incubation, PEP 0.1 mM, ADP 0.2 mM. The series is classed as biochemical. Set-up: made in house. The procedure: As these compounds were binding to a known allosteric site on PK, the effects of ligands I–IV on the enzymatic activities of PKL and PKM2 were determined (Figure S2). The two isozymes were incubated with increasing concentrations of compounds before the addition of substrates PEP and adenosine diphosphate (ADP), and the reactions were monitored using a Kinase‐Glo MAX assay.
Figure S2. Effects of ligands I-IV on recombinant PK activities. PKL or PKM2 (10 nM) were pre-incubated with the compounds (0-100 µM) for 15 min following the addition of PEP (0.1 mM) and ADP (0.2 mM). The reactions were terminated by the addition of Kinase Glo-MAX reagent after 10 min, and the luminescence from each reaction was quantified using a plate reader. The activity values are expressed as a percentage of PK activity of the DMSO control. The potencies were calculated by best fit of the Hill equation to the luminescence data.^[2] (A) PKL titrations. (B) PKM2 titrations. Error bars represent the ±SE of replicates (n = 3).

The next series can be described thus: Solubility. In kind it is physicochemical.
In another series the target is PKLNluc (Homo sapiens, UniProt P30613). Briefly: Live-cell NanoBRET assay in HEK293 cells. The series is classed as cell-based. Set-up: host or cells: HEK293, transient transfection. Particulars: 20 nM tracer IV. On the procedure:
To investigate the intracellular interaction of tracer IV with PKLNluc, we prepared a mammalian expression construct, fusing Nluc to the N‐terminus of PKL. […] As a negative control for NanoBRET experiments, a construct expressing Nluc alone (without PKL) was also prepared.
Additionally, cell viability assays were conducted on cells transfected with either PKLNluc or Nluc plasmids and incubated with tracer IV (Figure S4b,c).
HEK293 cells were passed one day before transfection. The concentration of cells was adjusted to 2x10^5 cells/ml in Opti-MEM™ without phenol red (Invitrogen) supplemented with 1% FBS (Hyclone). Cells (4x10^6) were reversed transfected with 1 µg of PKLNluc plasmid or 1 µg Nluc plasmid and 9 µg of carrier DNA (Promega) using 30 µL of Fugene HD transfection reagent (Promega). […] Work solutions (100x) of tracer IV were prepared from DMSO stocks and further diluted to 20x concentrations with Tracer buffer (Promega). Twenty-five hours after transfection, the cells were treated with 5 µL/well of each of 20x concentrations of the tracer (final concentrations in the assay were in the range 0.001-1 µM, depending on the experiment). Thereafter, 10 µL of 10x solutions of competitors (diluted in Opti-MEM™ medium from stocks of 100x prepared in DMSO) were added to some sets of cells, while the other set received only Opti-MEM™ containing 1% DMSO. The cells were incubated for 2 h at 37°C (5% CO2). […] For each sample well, BRET ratios were calculated using the following formula:
BRET ratio mBU= AcceptorSDonorS-AcceptorNTDonorNT
Where AcceptorS is the luminescence intensity of the sample well at 550 nm, DonorS is the luminescence of the sample well at 450 nm, and AcceptorNT and DonorNT are the luminescence of the no-tracer control at 550 nm and 450 nm respectively.

For another series, the target named is PKLwt (Homo sapiens, UniProt P30613). The experiment in a line: Fluorescence indicator displacement (FID) competition assay.
Where [6] appears, read: K D SPR (PKL), 20 °C, mean ± SE n=3.

T1 sequence (P14618 whole entry): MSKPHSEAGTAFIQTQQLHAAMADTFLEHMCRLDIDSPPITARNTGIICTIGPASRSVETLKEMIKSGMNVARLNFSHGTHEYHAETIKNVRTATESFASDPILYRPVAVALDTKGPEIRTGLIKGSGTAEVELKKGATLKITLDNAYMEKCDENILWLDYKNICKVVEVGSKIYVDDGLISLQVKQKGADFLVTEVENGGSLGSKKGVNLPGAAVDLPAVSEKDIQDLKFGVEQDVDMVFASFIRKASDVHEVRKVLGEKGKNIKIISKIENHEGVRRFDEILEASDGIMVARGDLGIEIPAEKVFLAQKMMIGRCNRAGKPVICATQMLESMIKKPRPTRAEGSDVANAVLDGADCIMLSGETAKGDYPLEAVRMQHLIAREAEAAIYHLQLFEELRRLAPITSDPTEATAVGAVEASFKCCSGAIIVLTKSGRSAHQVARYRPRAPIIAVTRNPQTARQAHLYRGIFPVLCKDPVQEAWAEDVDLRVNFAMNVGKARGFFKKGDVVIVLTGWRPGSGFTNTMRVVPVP
T2 sequence (P30613 1-543 isoform P30613-2): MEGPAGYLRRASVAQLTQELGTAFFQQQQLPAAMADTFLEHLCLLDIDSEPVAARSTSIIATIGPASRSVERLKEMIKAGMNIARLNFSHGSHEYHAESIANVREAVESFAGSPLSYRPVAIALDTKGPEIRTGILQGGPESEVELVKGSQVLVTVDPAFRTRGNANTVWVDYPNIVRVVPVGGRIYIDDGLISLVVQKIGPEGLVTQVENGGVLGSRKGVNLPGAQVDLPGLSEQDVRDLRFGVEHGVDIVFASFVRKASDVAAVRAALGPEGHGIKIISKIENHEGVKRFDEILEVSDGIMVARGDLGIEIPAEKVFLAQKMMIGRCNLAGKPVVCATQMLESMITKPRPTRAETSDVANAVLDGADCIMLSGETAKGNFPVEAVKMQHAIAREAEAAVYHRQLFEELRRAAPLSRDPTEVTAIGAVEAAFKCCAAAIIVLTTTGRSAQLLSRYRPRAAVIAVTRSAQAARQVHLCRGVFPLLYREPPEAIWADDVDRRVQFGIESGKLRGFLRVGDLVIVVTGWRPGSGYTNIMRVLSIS
PKLwt, sequence (P30613 1-543 isoform P30613-2): as above
PKLNluc, sequence (P30613 1-543 isoform P30613-2): as above
Description for PKLwt: Additionally, we performed fluorescence competition assays with these competitors against IV, using recombinant PKLwt (Figure 6b). […] A combined 2x PKL-tracer IV solution was prepared in Tris-HCl buffer containing 1% DMSO, with final concentrations of 0.2 µM PKL and 0.1 µM tracer IV.

In the case of `O=c1c2ccc(S(=O)(=O)c3ccccc3)cc2cnn1Cc1ccccc1` [Compound I, 2-Benzyl-6-(phenylsulfonyl)phthalazin-1(2H)-one, reference compound], the Kd at PKM2 [1] turned out to be 33 ± 1 nM. In addition, the koff on PKM2 [1] (read-out: k off SPR (PKM2)) is less than 0.00055 s⁻¹. Further, the kon at PKM2 [1] (read-out: k on SPR (PKM2)) is 4500 M⁻¹ s⁻¹. Further, on PKL [2], the “PKL activities (% of vehicle) 0.1 µM” value is 115 ± 2 % of vehicle, the “PKL activities (% of vehicle) 1 µM” value was 189 ± 3 % of vehicle and the “PKL activities (% of vehicle) 10 µM” value is 330 ± 3 % of vehicle. Besides, at PKL [3], the EC50 was determined as 15 nM and the “PKL E max” value came to 162 % vehicle. In addition, on PKL [4] (setting [6]), the Kd was determined as 133 ± 8 nM. At PKL [4], the koff is 0.00533 s⁻¹ and the kon was 41200 M⁻¹ s⁻¹. On PKM2 [5], the “PKM2 E max” value is recorded as 596 % of vehicle and the EC50 was found to be 25 nM.
`CN(C)c1ccc(S(=O)(=O)c2ccc3c(=O)n(Cc4ccccc4)ncc3c2)c2nonc12` [Compound II, 2-Benzyl-6-((7-(dimethylamino)benzo[c][1,2,5]oxadiazol-4-yl)sulfonyl)phthalazin-1(2H)-one]: the solubility result in the series “Solubility” is given as “poor”. Also, at PKM2 [1], the Kd was more than 100000 nM and the “K D (SPR, PKM2)” value is recorded as “no detectable binding”. For the same compound, at PKL [2], the “PKL activities (% of vehicle) 0.1 µM” value is given as 112 ± 1 % of vehicle, the “PKL activities (% of vehicle) 1 µM” value is 126 ± 1 % of vehicle and the “PKL activities (% of vehicle) 10 µM” value is 133 ± 6 % of vehicle. In addition, at PKL [3], the EC50 was found to be 700 nM and the “PKL E max” value is recorded as 120 % vehicle. In addition, the Kd at PKL [4] (setting [6]) stood at 36200 ± 289 nM. At PKL [4] (SPR K D ratio), the “weaker PKL affinity relative to compound I” value is reported as 250 fold. On PKL [4], the koff is 0.00833 s⁻¹ and the kon is 167 M⁻¹ s⁻¹. Moreover, the “PKM2 E max” value at PKM2 [5] is 572 % of vehicle.
With `CN(C)c1ccc(S(=O)(=O)c2ccc3c(=O)n(CC(C)(C)C)ncc3c2)c2nonc12` [Compound III, 6-((7-(Dimethylamino)benzo[c][1,2,5]oxadiazol-4-yl)sulfonyl)-2-neopentylphthalazin-1(2H)-one], the solubility result in the series “Solubility” is “poor”. Moreover, on PKM2 [1], the Kd was more than 100000 nM and the “K D (SPR, PKM2)” value is listed as “no detectable binding”. Further, the “effect on PKL at higher concentrations” value on PKL [3] (>50 µM) is “weak inhibition”. On PKL [3], the EC50 was 86000 nM and the “PKL E max” value is recorded as 50 ^a) % vehicle. In addition, the “K D SPR (PKL)” value at PKL [4] (20 °C, mean ± SE n=3) was “no binding”. The same compound returned a Kd at PKL [4] (setting [6]) of more than 100000 nM. Besides, at PKM2 [5], the “PKM2 E max” value is given as 323 % of vehicle and the EC50 is more than 10000 nM.
On to `Nc1cccc(S(=O)(=O)N2CCCN(S(=O)(=O)c3ccc4c(c3)OCCO4)CC2)c1` [DASA-58, reference compound], for which the Kd is 170 nM at PKL [4] (K D (SPR, PKL), 20 °C, recombinant PKL); 245 nM at PKLNluc (Figure 6, read-out: K D (cell), Cheng–Prusoff corrected); 179 nM at PKLwt. In addition, the EC50 is 512 nM on PKLNluc (2 h 37 °C, live HEK293, Figure 6a, read-out: EC50 displacement of tracer IV) and 394 nM at PKLwt.
